Reference: ChEMBL document CHEMBL1154885, “Heat shock protein 90: inhibitors in clinical trials” (J Med Chem, 2010)

Columns and labels:
[1] = Antitumor activity against human U87MG cells xenografted in mouse assessed as tumor regression at 50 mg/kg, ip; format: functional, U-87MG ATCC; conditions: route intraperitoneal
[2] = Clearance in tumor of mouse bearing human WM266.4 cells at 50 mg/kg, iv; format: ADME, organism-based, Neoplasm; parameters: dose 50 mg/kg, route intravenous; conditions: in vivo
[3] = Apparent volume of distribution in tumor of mouse bearing human WM266.4 cells at 50 mg/kg, iv; format: ADME, organism-based, Neoplasm; parameters: dose 50 mg/kg, route intravenous; conditions: read-out: Vz
[4] = Apparent volume of distribution in tumor of mouse bearing human WM266.4 cells at 50 mg/kg, ip; format: ADME, organism-based, Neoplasm; parameters: dose 50 mg/kg, route intraperitoneal; conditions: in vivo
[5] = Metabolic stability in mouse liver microsomes assessed as drug remaining after 30 mins; format: ADME, Microsome; conditions: read-out: Stability
[6] = tested on: Plasma; assay: Clearance in plasma of mouse bearing human WM266.4 cells at 50 mg/kg, iv; format: ADME, organism-based; parameters: dose 50 mg/kg, route intravenous; conditions: in vivo
[7] = Cmax in plasma of mouse bearing human WM266.4 cells at 50 mg/kg, ip; format: ADME, organism-based; parameters: dose 50 mg/kg, route intraperitoneal
[8] = tested on: BT-474; assay: Antitumor activity against human BT474 cells xenografted in mouse at 50 mg/kg, ip; format: functional; conditions: BT-474, ip, route intraperitoneal, read-out: TGI
[9] = Cmax in tumor of mouse bearing human WM266.4 cells at 50 mg/kg, iv; format: ADME, organism-based, Neoplasm; parameters: dose 50 mg/kg, route intravenous; conditions: read-out: Cmax_tumor
[10] = Half life in plasma of mouse bearing human WM266.4 cells at 50 mg/kg, ip; format: ADME, organism-based; parameters: dose 50 mg/kg, route intraperitoneal
[11] = Metabolic stability in human liver microsomes assessed as drug remaining after 30 mins; format: ADME, Microsome; conditions: read-out: Stability
[12] = Toxicity in mouse assessed as maximum tolerated dose; format: organism-based; conditions: in vivo
[13] = Cmax in plasma of mouse bearing human WM266.4 cells at 50 mg/kg, iv; format: ADME, organism-based; parameters: dose 50 mg/kg, route intravenous
[14] = Clearance in plasma of mouse bearing human WM266.4 cells at 50 mg/kg, ip; format: ADME, organism-based; parameters: dose 50 mg/kg, route intraperitoneal
[15] = Half life in tumor of mouse bearing human WM266.4 cells at 50 mg/kg, ip; format: ADME, organism-based, Neoplasm; parameters: dose 50 mg/kg, route intraperitoneal
[16] = AUC in plasma of mouse bearing human WM266.4 cells at 50 mg/kg, ip; format: ADME, organism-based; parameters: dose 50 mg/kg, route intraperitoneal
[17] = tested on: Plasma; assay: Apparent volume of distribution in plasma of mouse bearing human WM266.4 cells at 50 mg/kg, ip; format: ADME, organism-based; parameters: dose 50 mg/kg, route intraperitoneal; conditions: in vivo
[18] = Clearance in tumor of mouse bearing human WM266.4 cells at 50 mg/kg, ip; format: ADME, organism-based, Neoplasm; parameters: dose 50 mg/kg, route intraperitoneal; conditions: in vivo
[19] = tested on: Plasma; assay: Apparent volume of distribution in plasma of mouse bearing human WM266.4 cells at 50 mg/kg, iv; format: ADME, organism-based; parameters: dose 50 mg/kg, route intravenous; conditions: in vivo
[20] = AUC in tumor of mouse bearing human WM266.4 cells at 50 mg/kg, iv; format: ADME, organism-based, Neoplasm; parameters: dose 50 mg/kg, route intravenous
[21] = Drug level in tumor of mouse bearing human WM266.4 cells at 50 mg/kg, ip administered once daily for 5 days measured after 24 hrs after final dose; format: ADME, organism-based, Neoplasm; parameters: dose 50 mg/kg, route intraperitoneal; conditions: read-out: Drug uptake
[22] = Half life in tumor of mouse bearing human WM266.4 cells at 50 mg/kg, iv; format: ADME, organism-based, Neoplasm; parameters: dose 50 mg/kg, route intravenous
[23] = AUC in tumor of mouse bearing human WM266.4 cells at 50 mg/kg, ip; format: ADME, organism-based, Neoplasm; parameters: dose 50 mg/kg, route intraperitoneal
[24] = tested on: Mus musculus; assay: Hepatic blood flow in mouse bearing human WM266.4 cells at 50 mg/kg, ip; format: ADME, organism-based, Liver; parameters: dose 50 mg/kg, route intraperitoneal; conditions: in vivo
[25] = Cmax in tumor of mouse bearing human WM266.4 cells at 50 mg/kg, ip; format: ADME, organism-based, Neoplasm; parameters: dose 50 mg/kg, route intraperitoneal; conditions: read-out: Cmax_tumor
[26] = AUC in plasma of mouse bearing human WM266.4 cells at 50 mg/kg, iv; format: ADME, organism-based; parameters: dose 50 mg/kg, route intravenous
[27] = tested on: Mus musculus; assay: Toxicity in mouse assessed as body weight loss at 70 mg/kg, ip after 8 days; format: organism-based; parameters: dose 70 mg/kg, route intraperitoneal; conditions: in vivo, 192 h
[28] = tested on: Plasma; assay: Half life in plasma of mouse bearing human WM266.4 cells at 50 mg/kg, iv; format: ADME, organism-based; parameters: dose 50 mg/kg, route intravenous; conditions: in vivo
[29] = molecular target: Heat shock protein HSP 90-beta (Homo sapiens, UniProt P08238)
Sequence of Heat shock protein HSP 90-beta (P08238 whole entry): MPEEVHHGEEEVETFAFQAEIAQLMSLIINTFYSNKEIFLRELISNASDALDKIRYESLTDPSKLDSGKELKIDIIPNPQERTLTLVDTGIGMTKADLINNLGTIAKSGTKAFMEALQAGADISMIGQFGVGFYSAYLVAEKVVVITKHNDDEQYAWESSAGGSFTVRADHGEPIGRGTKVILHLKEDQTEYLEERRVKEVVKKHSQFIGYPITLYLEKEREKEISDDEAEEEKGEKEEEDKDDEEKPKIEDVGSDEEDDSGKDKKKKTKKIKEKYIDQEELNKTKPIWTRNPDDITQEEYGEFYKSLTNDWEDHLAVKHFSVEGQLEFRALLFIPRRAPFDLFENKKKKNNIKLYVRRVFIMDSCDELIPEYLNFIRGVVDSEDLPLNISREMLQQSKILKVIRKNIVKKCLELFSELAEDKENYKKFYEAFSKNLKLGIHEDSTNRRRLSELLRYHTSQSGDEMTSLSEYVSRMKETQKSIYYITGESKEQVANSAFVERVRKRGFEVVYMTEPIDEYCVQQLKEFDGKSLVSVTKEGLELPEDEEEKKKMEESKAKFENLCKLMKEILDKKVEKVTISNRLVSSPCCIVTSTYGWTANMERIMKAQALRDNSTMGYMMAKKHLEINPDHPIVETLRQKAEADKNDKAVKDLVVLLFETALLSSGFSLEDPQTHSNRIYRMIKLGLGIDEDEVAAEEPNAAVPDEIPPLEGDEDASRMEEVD
Description: Inhibition of HSP90-mediated client protein HER2 degradation

[30] = Half life in plasma of mouse bearing human MM1S cells at 50 mg/kg; format: ADME, organism-based; parameters: dose 50 mg/kg
[31] = Half life in tumor of mouse bearing human MM1S cells at 50 mg/kg; format: ADME, organism-based, Neoplasm; parameters: dose 50 mg/kg
[32] = tested on: Rattus norvegicus; assay: Toxicity in iv dosed rat assessed as maximum tolerated dose; format: organism-based; conditions: in vivo
[33] = Chemical stability assessed as half life; format: physicochemical
[34] = tested on: Canis familiaris; assay: Toxicity in iv dosed dog assessed as maximum tolerated dose; format: organism-based, Canis lupus familiaris; conditions: in vivo

With `CCNC(=O)c1noc(-c2cc(C(C)C)c(O)cc2O)c1-c1ccc(CN2CCOCC2)cc1` [LUMINESPIB] the Activity [1] was 58%, the CL [2] was 0.02 L/h and the Vd [3] was 0.44 L. For the same compound, the Vz [4] was 0.883 L, the remaining at 0.5 h [5] was 31% and the CL [6] was 0.143 L/h. The Cmax [7] was 53 µM, the inhibition in vivo at 50 mg/kg [8] was 79% and the Cmax [9] was 14 µM. It also gave a half-life [10] of 1 h, a remaining at 0.5 h [11] of 41% and an MTD [12] of 50 mg/kg. It also gave a Cmax [13] of 49 µM, a CL/F [14] of 1.37 mL/min and a half-life [15] of 15 h. The AUC [16] was 26 µM·h, the Vz [17] was 0.077 L and the CL [18] was 0.41 L/h. It also gave a Vz [19] of 0.875 L, an AUC [20] of 70 µM·h and a concentration at 24 h [21] of 6.8 µM. It also gave a half-life [22] of 15 h, an AUC [23] of 36 µM·h and an LBF [24] of 108 mL/h. It also gave a Cmax [25] of 6 µM, an AUC [26] of 15 µM·h and an Activity [27] of 10%. For the same compound, the t1/2 [28] was 1 h.
With `CCCCn1c(Cc2ccc(OC)c(OC)c2OC)nc2c(N)ncnc21` the Activity [29] was 40 µM.
In the case of `C#CCCCn1c(Sc2cc3c(cc2Br)OCO3)nc2c(N)ncnc21`, the Activity [29] is reported as 0.03 µM.
In the case of `CC1(C)CC(=O)c2c(C(F)(F)F)nn(-c3ccc(C(N)=O)c(N[C@H]4CC[C@H](O)CC4)c3)c2C1` [SNX-2112], the half-life [30] is reported as 3 h and the half-life [31] is reported as 10 h.
In the case of `CO[C@H]1/C=C\C=C(/C)C(=O)NC2=CC(=O)C(NCCN(C)C)=C(C[C@@H](C)C[C@H](OC)[C@H](O)[C@@H](C)/C=C(\C)[C@@H]1OC(N)=O)C2=O` [ALVESPIMYCIN], the MTD [32] is reported as 12 mg/m2, the half-life [33] is reported as 0.433 h and the MTD [34] is reported as 8 mg/m2.
